ChEMBL document CHEMBL5537158, “Polymyxins with Potent Antibacterial Activity against Colistin-Resistant Pathogens: Fine-Tuning Hydrophobicity with Unnatural Amino Acids” (J Med Chem, 2024)
Values after ≈ are worked out from the molar mass of the structure shown. Positions of bridges follow the written chain, without caps; N, C: chain ends. Non-standard residues stand in square brackets, D forms with d. Residues, ends and D or L forms follow the SMILES beside them. *: point of attachment. dPhe(3,4,5-F3) = N[C@H](Cc1cc(F)c(F)c(F)c1)C(=O)O; dPhe(4-Cl) = N[C@H](Cc1ccc(Cl)cc1)C(=O)O; Phe(4-F) = N[C@@H](Cc1ccc(F)cc1)C(=O)O; Phe(2-F) = N[C@@H](Cc1ccccc1F)C(=O)O; Gly(octyl) = CCCCCCCC[C@H](N)C(=O)O; hhPhe = N[C@@H](CCCc1ccccc1)C(=O)O; hPhe = N[C@@H](CCc1ccccc1)C(=O)O; hLeu = CC(C)CC[C@H](N)C(=O)O; Octanoyl = CCCCCCCC(=O)*; Dab = NCC[C@H](N)C(=O)O

Legend:
Format in all cases: functional
Klebsiella pneumoniae [1] = assay: Antimicrobial activity against colistin resistant Klebsiella pneumoniae ATCC 13883 assessed as bacterial growth inhibition incubated for 20 hrs by broth microdilution method
Escherichia coli [2] = assay: Antibacterial activity against […] Escherichia coli clinical isolate 2 assessed as bacterial growth inhibition incubated for 20 hrs by broth microdilution method
Pseudomonas aeruginosa [3] = assay: Antimicrobial activity against Pseudomonas aeruginosa PAO1 assessed as bacterial growth inhibition incubated for 20 hrs by broth microdilution method
Acinetobacter baumannii [4] = assay: Antimicrobial activity against Acinetobacter baumannii ATCC 19606 assessed as bacterial growth inhibition incubated for 20 hrs by broth microdilution method
Escherichia coli [5] = assay: Antibacterial activity against […] Escherichia coli clinical isolate 3 assessed as bacterial growth inhibition incubated for 20 hrs by broth microdilution method
Escherichia coli [6] = assay: Antibacterial activity against Escherichia coli ATCC 25922 assessed as bacterial growth inhibition incubated for 20 hrs by broth microdilution method
Klebsiella pneumoniae [7] = assay: Antimicrobial activity against colistin resistant Klebsiella pneumoniae clinical isolate 4 assessed as bacterial growth inhibition incubated for 20 hrs by broth microdilution method
Klebsiella pneumoniae [8] = assay: Antimicrobial activity against colistin resistant Klebsiella pneumoniae clinical isolate 3 assessed as bacterial growth inhibition incubated for 20 hrs by broth microdilution method
Acinetobacter baumannii [9] = assay: Antimicrobial activity against colistin resistant Acinetobacter baumannii clinical isolate 3 assessed as bacterial growth inhibition incubated for 20 hrs by broth microdilution method
Klebsiella pneumoniae [10] = assay: Antimicrobial activity against colistin resistant Klebsiella pneumoniae clinical isolate 2 assessed as bacterial growth inhibition incubated for 20 hrs by broth microdilution method
Klebsiella pneumoniae [11] = assay: Antimicrobial activity against Klebsiella pneumoniae ATCC 13883 assessed as bacterial growth inhibition incubated for 20 hrs by broth microdilution method
Escherichia coli [12] = assay: Antibacterial activity against […] Escherichia coli ATCC 25922 assessed as bacterial growth inhibition incubated for 20 hrs by broth microdilution method
Pseudomonas aeruginosa [13] = assay: Antimicrobial activity against colistin resistant Pseudomonas aeruginosa 7197/19 assessed as bacterial growth inhibition incubated for 20 hrs by broth microdilution method
Escherichia coli [14] = assay: Antibacterial activity against […] Escherichia coli clinical isolate 1 assessed as bacterial growth inhibition incubated for 20 hrs by broth microdilution method
Acinetobacter baumannii [15] = assay: Antimicrobial activity against colistin resistant Acinetobacter baumannii clinical isolate 1 assessed as bacterial growth inhibition incubated for 20 hrs by broth microdilution method
Klebsiella pneumoniae [16] = assay: Antimicrobial activity against colistin resistant Klebsiella pneumoniae clinical isolate 1 assessed as bacterial growth inhibition incubated for 20 hrs by broth microdilution method
Acinetobacter baumannii [17] = assay: Antimicrobial activity against colistin resistant Acinetobacter baumannii clinical isolate 4 assessed as bacterial growth inhibition incubated for 20 hrs by broth microdilution method
Escherichia coli [18] = assay: Antimicrobial activity against […] Escherichia coli harboring mcr-1 assessed as bacterial growth inhibition incubated for 20 hrs by broth microdilution method
Pseudomonas aeruginosa [19] = assay: Antimicrobial activity against Pseudomonas aeruginosa ATCC 27853 assessed as bacterial growth inhibition incubated for 20 hrs by broth microdilution method
Acinetobacter baumannii [20] = assay: Antimicrobial activity against colistin resistant Acinetobacter baumannii ATCC 3658/17 assessed as bacterial growth inhibition incubated for 20 hrs by broth microdilution method
Pseudomonas aeruginosa [21] = assay: Antimicrobial activity against colistin resistant Pseudomonas aeruginosa clinical isolate 1 assessed as bacterial growth inhibition incubated for 20 hrs by broth microdilution method

| Structure (SMILES) | MIC (Escherichia coli [2]) [µg/mL] | MIC (Pseudomonas aeruginosa [3]) [µg/mL] | MIC (Acinetobacter baumannii [4]) [µg/mL] | MIC (Escherichia coli [6]) [µg/mL] | MIC (Klebsiella pneumoniae [8]) [µg/mL] | MIC (Acinetobacter baumannii [9]) [µg/mL] | MIC (Klebsiella pneumoniae [10]) [µg/mL] | MIC (Klebsiella pneumoniae [11]) [µg/mL] | MIC (Pseudomonas aeruginosa [13]) [µg/mL] | MIC (Escherichia coli [14]) [µg/mL] | MIC (Klebsiella pneumoniae [16]) [µg/mL] | MIC (Escherichia coli [18]) [µg/mL] | MIC (Acinetobacter baumannii [20]) [µg/mL] | further results |
| --- | --- | --- | --- | --- | --- | --- | --- | --- | --- | --- | --- | --- | --- | --- |
| CCCCCCCC[C@@H]1NC(=O)[C@@H](Cc2ccccc2)NC(=O)[C@H](CCN)NC(=O)[C@@H](NC(=O)[C@H](CCN)NC(=O)[C@@H](NC(=O)[C@H](CCN)NC(=O)CCCCCCC)[C@@H](C)O)CCNC(=O)[C@H]([C@@H](C)O)NC(=O)[C@H](CCN)NC(=O)[C@H](CCN)NC1=O (Octanoyl-[Dab]T[Dab][Dab][Dab][dF][Gly(octyl)][Dab][Dab]T; lactam 4-C) | 4 (≈ 3.21 µM) | 0.5 (≈ 0.401 µM) | 0.25 (≈ 0.201 µM) | 0.5 (≈ 0.401 µM) | 16 (≈ 12.8 µM) | 0.25 (≈ 0.201 µM) | 16 (≈ 12.8 µM) | 0.25 (≈ 0.201 µM) | 0.25 (≈ 0.201 µM) | 4 (≈ 3.21 µM) |  |  |  | MIC (Klebsiella pneumoniae [1]): 16 µg/mL (≈ 12.8 µM); MIC (Escherichia coli [5]): 4 µg/mL (≈ 3.21 µM); MIC (Klebsiella pneumoniae [7]): 16 µg/mL (≈ 12.8 µM); MIC (Escherichia coli [12]): 0.5 µg/mL (≈ 0.401 µM); MIC (Acinetobacter baumannii [15]): 4 µg/mL (≈ 3.21 µM) |
| CCCCCCCC(=O)N[C@@H](CCN)C(=O)N[C@H](C(=O)N[C@@H](CCN)C(=O)N[C@H]1CCNC(=O)[C@H]([C@@H](C)O)NC(=O)[C@H](CCN)NC(=O)[C@H](CCN)NC(=O)[C@H](CCC(C)C)NC(=O)[C@@H](Cc2ccccc2)NC(=O)[C@H](CCN)NC1=O)[C@@H](C)O (Octanoyl-[Dab]T[Dab][Dab][Dab][dF][hLeu][Dab][Dab]T; lactam 4-C) | 0.5 (≈ 0.415 µM) | < 0.125 |  | < 0.125 |  | 0.5 (≈ 0.415 µM) | 8 (≈ 6.65 µM) | 0.25 (≈ 0.208 µM) | 0.5 (≈ 0.415 µM) |  | 16 (≈ 13.3 µM) | 1 (≈ 0.831 µM) |  | MIC (Acinetobacter baumannii [17]): 2 µg/mL (≈ 1.66 µM); MIC (Pseudomonas aeruginosa [19]): 0.25 µg/mL (≈ 0.208 µM); MIC (Escherichia coli [12]): 0.125 µg/mL (≈ 0.104 µM); MIC (Acinetobacter baumannii [15]): 4 µg/mL (≈ 3.32 µM) |
| CCCCCCCC(=O)N[C@@H](CCN)C(=O)N[C@H](C(=O)N[C@@H](CCN)C(=O)N[C@H]1CCNC(=O)[C@H]([C@@H](C)O)NC(=O)[C@H](CCN)NC(=O)[C@H](CCN)NC(=O)[C@H](Cc2ccccc2F)NC(=O)[C@@H](CC(C)C)NC(=O)[C@H](CCN)NC1=O)[C@@H](C)O (Octanoyl-[Dab]T[Dab][Dab][Dab][dL][Phe(2-F)][Dab][Dab]T; lactam 4-C) |  |  | 0.125 (≈ 0.104 µM) | 0.06 (≈ 0.0497 µM) |  |  |  | 4 (≈ 3.31 µM) |  |  |  | 2 (≈ 1.66 µM) |  |  |
| CCCCCCCC(=O)N[C@@H](CCN)C(=O)N[C@H](C(=O)N[C@@H](CCN)C(=O)N[C@H]1CCNC(=O)[C@H]([C@@H](C)O)NC(=O)[C@H](CCN)NC(=O)[C@H](CCN)NC(=O)[C@H](Cc2ccc(F)cc2)NC(=O)[C@@H](CC(C)C)NC(=O)[C@H](CCN)NC1=O)[C@@H](C)O (Octanoyl-[Dab]T[Dab][Dab][Dab][dL][Phe(4-F)][Dab][Dab]T; lactam 4-C) |  | 0.125 (≈ 0.104 µM) | 0.25 (≈ 0.207 µM) |  |  |  |  |  | 32 (≈ 26.5 µM) |  |  | 2 (≈ 1.66 µM) | 16 (≈ 13.3 µM) |  |
| CCCCCCCC(=O)N[C@@H](CCN)C(=O)N[C@H](C(=O)N[C@@H](CCN)C(=O)N[C@H]1CCNC(=O)[C@H]([C@@H](C)O)NC(=O)[C@H](CCN)NC(=O)[C@H](CCN)NC(=O)[C@H](CCc2ccccc2)NC(=O)[C@@H](CC(C)C)NC(=O)[C@H](CCN)NC1=O)[C@@H](C)O (Octanoyl-[Dab]T[Dab][Dab][Dab][dL][hPhe][Dab][Dab]T; lactam 4-C) | 1 (≈ 0.831 µM) | 0.25 (≈ 0.208 µM) |  | 0.125 (≈ 0.104 µM) | 4 (≈ 3.32 µM) | 1 (≈ 0.831 µM) | 4 (≈ 3.32 µM) |  | 1 (≈ 0.831 µM) | 1 (≈ 0.831 µM) | 4 (≈ 3.32 µM) | 1 (≈ 0.831 µM) |  | MIC (Escherichia coli [5]): 0.5 µg/mL (≈ 0.415 µM); MIC (Klebsiella pneumoniae [7]): 4 µg/mL (≈ 3.32 µM); MIC (Pseudomonas aeruginosa [19]): 0.25 µg/mL (≈ 0.208 µM) |
| CCCCCCCC(=O)N[C@@H](CCN)C(=O)N[C@H](C(=O)N[C@@H](CCN)C(=O)N[C@H]1CCNC(=O)[C@H]([C@@H](C)O)NC(=O)[C@H](CCN)NC(=O)[C@H](CCN)NC(=O)[C@H](CCCc2ccccc2)NC(=O)[C@@H](CC(C)C)NC(=O)[C@H](CCN)NC1=O)[C@@H](C)O (Octanoyl-[Dab]T[Dab][Dab][Dab][dL][hhPhe][Dab][Dab]T; lactam 4-C) |  | 0.5 (≈ 0.411 µM) | < 0.125 | 0.5 (≈ 0.411 µM) |  |  |  |  | 0.5 (≈ 0.411 µM) |  |  | 1 (≈ 0.821 µM) | 0.5 (≈ 0.411 µM) |  |
| CCCCCCCC(=O)N[C@@H](CCN)C(=O)N[C@H](C(=O)N[C@@H](CCN)C(=O)N[C@H]1CCNC(=O)[C@H]([C@@H](C)O)NC(=O)[C@H](CCN)NC(=O)[C@H](CCN)NC(=O)[C@H](CC(C)C)NC(=O)[C@@H](Cc2cc(F)c(F)c(F)c2)NC(=O)[C@H](CCN)NC1=O)[C@@H](C)O (Octanoyl-[Dab]T[Dab][Dab][Dab][dPhe(3,4,5-F3)]L[Dab][Dab]T; lactam 4-C) |  | < 0.125 | < 0.125 | < 0.125 |  |  |  | < 0.125 | 0.25 (≈ 0.201 µM) |  |  | 1 (≈ 0.804 µM) |  |  |
| CCCCCCCC(=O)N[C@@H](CCN)C(=O)N[C@H](C(=O)N[C@@H](CCN)C(=O)N[C@H]1CCNC(=O)[C@H]([C@@H](C)O)NC(=O)[C@H](CCN)NC(=O)[C@H](CCN)NC(=O)[C@H](CC(C)C)NC(=O)[C@@H](Cc2ccc(Cl)cc2)NC(=O)[C@H](CCN)NC1=O)[C@@H](C)O (Octanoyl-[Dab]T[Dab][Dab][Dab][dPhe(4-Cl)]L[Dab][Dab]T; lactam 4-C) |  | 0.25 (≈ 0.204 µM) |  |  | 16 (≈ 13.1 µM) |  |  | < 0.125 | 0.25 (≈ 0.204 µM) | 2 (≈ 1.63 µM) | 16 (≈ 13.1 µM) |  | 0.25 (≈ 0.204 µM) | MIC (Pseudomonas aeruginosa [21]): 4 µg/mL (≈ 3.27 µM); MIC (Klebsiella pneumoniae [1]): 16 µg/mL (≈ 13.1 µM); MIC (Acinetobacter baumannii [17]): 16 µg/mL (≈ 13.1 µM) |
